Assay results reported in ChEMBL document CHEMBL1201862, “PubChem BioAssay data set” (2004).
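Cells were grown in 96-well plates and exposed to each compound for 48 hours at five concentrations; endpoints were interpolated linearly between bracketing concentrations, or set to the highest concentration if not reached. GI50 marks 50% less growth.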 Calls of active or inactive are those of the source. Cut-off read from the data, not from the text of the source: active = GI50 up to about 1.1 µM and inactive = higher.

Tests used:
Test in all cases: NCI-60 cell line screen, 48 h
[1] = tested on: SK-MEL-2
[2] = tested on: UACC-62
[3] = tested on: HOP-92
[4] = tested on: DMS-114
[5] = tested on: OVCAR-3
[6] = tested on: SR
[7] = tested on: LOX IMVI
[8] = tested on: NCI-H460
[9] = tested on: CAKI-1
[10] = tested on: OVCAR-8
[11] = tested on: SF-268
[12] = tested on: RPMI-8226
[13] = tested on: KM12
[14] = tested on: SK-MEL-28
[15] = tested on: RXF 393

Measured: GI50

CN(C)CCC[N+]1=Nc2cccc3cccc(c23)N1
inactive: [1] > 100 µM | [2] 34.1 µM | [3] 66.7 µM | [4] 60.3 µM | [5] > 100 µM | [6] 16.9 µM | [7] 31.9 µM | [8] 35.6 µM | [9] 37.1 µM | [10] 46.6 µM | [11] > 100 µM | [12] 22.8 µM | [13] > 100 µM | [14] 56.2 µM

CCOC(=O)C1N(S(=O)(=O)c2ccc(C)cc2)CCC12c1ccccc1NC2c1ccc(OC)c(OC)c1 (stereo unspecified)
inactive: [2] > 100 µM | [3] 10.7 µM | [4] > 100 µM | [5] > 100 µM | [6] 22 µM | [15] > 100 µM | [7] > 100 µM | [8] > 100 µM | [9] > 100 µM | [10] > 100 µM | [11] > 100 µM | [12] 13.9 µM | [13] > 100 µM | [14] > 100 µM

Cc1nc2cc(N)c(F)cc2[nH]1
inactive: [1] > 100 µM | [2] > 100 µM | [3] > 100 µM | [4] > 100 µM | [6] > 100 µM | [15] > 100 µM | [7] > 100 µM | [8] > 100 µM | [9] > 100 µM | [10] > 100 µM | [11] > 100 µM | [13] > 100 µM | [14] > 100 µM

CCCC(=O)C(CC)/C(CCC(=O)N(Cc1ccccc1)Cc1ccccc1)=N/NC(=O)C[N+](C)(C)C (stereo unspecified)
inactive: [1] > 100 µM | [3] > 100 µM | [4] > 100 µM | [5] > 100 µM | [6] > 100 µM | [15] > 100 µM | [8] > 100 µM | [9] > 100 µM | [10] > 100 µM | [11] > 100 µM | [13] > 100 µM | [14] > 100 µM

CC(C)=CC(=O)CC(=O)C(=O)NCCNC(=O)C(=O)CC(=O)C=C(C)C
inactive: [1] > 50 µM | [2] > 50 µM | [3] > 50 µM | [4] > 50 µM | [5] > 50 µM | [15] > 50 µM | [7] > 50 µM | [8] > 50 µM | [9] > 50 µM | [10] > 50 µM | [11] > 50 µM | [12] > 50 µM | [13] > 50 µM | [14] > 50 µM

CCOC(=O)C(OCC1CC=CCC1)Sc1ccccc1 (stereo unspecified)
inactive: [1] > 100 µM | [2] > 100 µM | [3] > 100 µM | [4] > 100 µM | [5] > 100 µM | [6] 1.77 µM | [7] > 100 µM | [8] > 100 µM | [9] > 100 µM | [10] > 100 µM | [11] > 100 µM | [12] > 100 µM | [13] > 100 µM | [14] > 100 µM

C#Cc1ccccc1N1C(=O)C=CC1=O
inactive: [1] > 100 µM | [2] > 100 µM | [4] > 100 µM | [5] > 100 µM | [6] > 100 µM | [8] > 100 µM | [9] > 100 µM | [10] > 100 µM | [11] > 100 µM | [12] > 100 µM | [14] > 100 µM

COC(=O)c1nn(-c2ccccc2)c(=O)cc1N=[N+]=[N-]
inactive: [2] > 100 µM | [4] > 100 µM | [5] > 100 µM | [6] > 100 µM | [15] > 100 µM | [7] > 100 µM | [8] > 100 µM | [9] > 100 µM | [10] > 100 µM | [11] > 100 µM | [12] > 100 µM | [13] > 100 µM | [14] > 100 µM

Cc1ccc(C2=NO[C@@H]3C(=O)N(c4ccc(Cc5ccc(N6C(=O)[C@H]7C(c8ccc(C)cc8)=NO[C@H]7C6=O)cc5)cc4)C(=O)[C@H]23)cc1
inactive: [1] > 100 µM | [2] > 100 µM | [3] > 100 µM | [4] > 100 µM | [5] > 100 µM | [15] > 100 µM | [7] > 100 µM | [8] > 100 µM | [9] > 100 µM | [10] > 100 µM | [11] > 100 µM | [12] > 100 µM | [13] > 100 µM | [14] > 100 µM

Nc1ccc2n[se]nc2c1
inactive: [1] 79.1 µM | [2] > 100 µM | [4] > 100 µM | [6] > 100 µM | [15] > 100 µM | [7] 29.6 µM | [8] > 100 µM | [9] > 100 µM | [10] > 100 µM | [11] > 100 µM | [12] > 100 µM | [13] 48.1 µM | [14] > 100 µM

O=C1C=C2CCCC2C(C(=O)O)(C(=O)O)C1 (stereo unspecified)
inactive: [1] > 100 µM | [2] > 100 µM | [3] > 100 µM | [4] > 100 µM | [5] > 100 µM | [15] > 100 µM | [7] > 100 µM | [8] > 100 µM | [9] > 100 µM | [10] > 100 µM | [11] > 100 µM | [12] > 100 µM | [13] > 100 µM | [14] > 100 µM
